Structures can show the parent of a compound that is named as a salt. Where two headings read alike, the source gives them in different places.
Key:
rats [1] = assay: Maximal electroshock (MES) model in rats, p.o.;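 on all read-outs here: rat MES model gauging antiepileptic efficacy versus generalized and partial seizures after oral dosing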; type: in vivo; conditions: rats, p.o., Table 15; for ED50: Rattus norvegicus, po, read-out: RATS MES 50
mice [2] = assay: Maximal electroshock (MES) model in mice, i.p.;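 further: Electroshock-induced convulsion model serving to demonstrate antiepileptic efficacy against generalized and partial seizures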; type: in vivo; conditions: Mus musculus, ip, Table 15
in vivo = conditions: rat, in vivo, po
Experimental: (§1) Neurotoxicity of the claimed agents was also assessed in mice (i.p. administration) by the rotorod ataxia test and/or in rats (p.o. administration) by positional sense test and gait stance test. […] The term quantitating the neurotoxicity is the medial neurological toxic dose (TD50), was determined in the above tests.

rats [3] = assay: Neurotoxicity in rats (positional sense test and gait stance test), p.o.; conditions: rats, p.o.; Table 16
Experimental: as §1

[4] = Neurotoxicity in mice (rotorod ataxia test), i.p.; conditions: mouse, in vivo, ip
Experimental: as §1

[5] = test system: mechanically dissociated neonatal rat cerebellum; assay: Reversal of NMDA induced cell death in cultures of neonatal rat cerebellum; type: cell-based; conditions: for SURVIVING CELL IN CULTURE: relative to control (100%); for PERCENT PROTECTION: Cell Survival minus the NMDA effect; for EFFECTIVE PROTECTION: X x 100/70
Experimental: (§2) The cerebellum was aseptically dissociated from 6 or 7-day old rat pups and placed in a 15ml sterile plastic conical tube containing 3ml of Dulbecco's modified Eagle's medium (DMEM) with a high glucose concentration ([…]) and 2mM (v/v) L-glutamine and an antibiotic antimitotic mixture. The cerebella were then dissociated after 20-25 passages through a sterile 13 gauge, 10cm long stainless steel needle attached to a 5ml syringe with an inserted 45 micrometer pore nylon sieve. The dissociated cells were centrifuged at 200g for 5 minutes. The supernatant was discarded and the cells resuspended in medium enriched with 15% (v/v) heat inactivated fetal calf serum. Cell viability was determined by the tryptan blue exclusion test.
(§3) Cells were plated at a density of 200/mm^2 on poly-L-lysine coated surfaces. Poly-L-lysine coated glass coverslips were prepared at least one hour in advance of plating by immersing sterile coverslips in sterile distilled water solution containing 15 microgram/ml poly-L-lysine, and washing in sterile water just prior to use. The plated cells were covered with enriched medium and incubated at 37°C in an atmosphere of 5% CO2 in air and 97% humidity. After three days in culture, the media was replaced with media containing the desired test compound. Each test compound was tested in duplicate. Toxic-dose response was determined for each compound.
Four groups were run in each set of experiments; • I. Control, consisting of enriched media alone, • II. N-methyl-D-aspartate (NMDA, 1mM for 3 hours) as the cytotoxic challenge, • III. Test compound plus NMDA, and • IV. Positive control, spermine(0.01 micromoles) plus NMDA.
Nerve cell survival was evaluated by phase contrast microscopy and tryptan blue staining after 24 hours.
Surviving cells in culture are measured relative to control (100%), as described above. Percent protection is the Cell Survival for the test compound minus the NMDA effect. Thus, maximal protection is 100% minus 30% NMDA effect i.e. […]. The Effective Protection was calculated as the percent of the Percent Protection (X) divided by the maximal protection value (e.g. X x 100/70).

[6] = test system: mechanically dissociated neonatal rat cerebellum; assay: Enhancement of cell survival in cultures of neonatal rat cerebellum (no NMDA); type: cell-based; conditions: 24 hours after addition, percentage of the number of control cells on the fourth day
Experimental: as §2, with “The supernatant was discarded and the cells resuspended in medium enriched with 15% (v/v) heat inactivated fetal calf serum.” left out
as §3, with “The plated cells were covered with enriched medium and incubated at 37°C in an atmosphere of 5% CO2 in air and 97% humidity.” left out
Cell cultures were grown as described above but in the absence of NMDA and after 3 days a dose of test compound was added. Cell survival was monitored as described above.

Male mongolian gerbils = assay: Global brain ischemia in gerbils (CA1 pyramidal neurons); type: in vivo; conditions: 3 injections, fraction of hippocampi protected from ischemia, 14 days post-ischemia
Experimental: Each artery was clamped for 5 minutes with aneurysm clips to produce global brain ischemia. The anesthesia was discontinued upon clamping. After 5 minutes the clamps were removed and the wound closed with skin clips.
For treatment, the test compound or vehicle were injected intra-peritoneally (ip) in a volume of 50 microliters of solvent per 10g body weight. The first injection was given two minutes after clamp removal, and thereafter daily for the next 2 post-operative days (total of 3 injections).
Seven groups each of 4-8 animals were compared: • I. Control; (sham- or unoperated and saline treated), • II. Vehicle treated, unoperated (when solvent is other than saline), • III. Ischemia - untreated or saline treated), • IV. Ischemia - vehicle treated (when solvent is other than saline), • V. Ischemia - Test compound treated, one sub-group per concentration tested, • VI. Ischemia and pentobarbital (40 mg/kg) as positive control).
Analysis of neuronal damage was performed 14 days post-ischemia by counting pyramidal neurons throughout the CA1 layer of the anterior hippocampus in […] thick (paraffin) coronal brain sections stained with hematoxylin and erosin.
Percent Protection values represent the fraction of hippocampi protected from ischemia in a group of animals treated with the stated dose of compound.

rats [7] = conditions: Rattus norvegicus, po, read-out: RATS scMet ED50
mice [8] = conditions: Mus musculus, ip, read-out: MICE scMet ED50, mice, i.p.; Table 16
mice [9] = assay: in vivo; conditions: mouse, in vivo, ip
Experimental: as §1

rats [10] = assay: Electrically kindled rat model of epilepsy, p.o.; type: in vivo; conditions: po, read-out: ED50 (prevented seizures)
From the text: The rat electrical kindling model of epilepsy has been known to show efficacy of antiepileptic agents against complex partial seizures that evolve into generalized motor seizures. In these tests, rats were electrically stimulated via corneal electrodes twice daily for approximately 5 days and then once daily for an additional 10 days. Once the seizure criteria, as described by R.J. Racine, et al., Electroenceph. Clin. Neurophysiol. 32: 281-294 (1972), were met, the test substance was administered p.o. to rats, and the rat electrically stimulated, and observed for the presence or absence of a seizure.

male ICR albino mice = assay: Hypobaric hypoxia survival time in mice; type: in vivo
Experimental: Dessicator B was disconnected and allowed to equilibrate with room air whilst dessicator A was evacuated to a pressure of 100mmHg. […] The survival time from the moment of induction of hypoxia to the time of cessation of respiration was recorded for each mouse for a maximum of 15 minutes after which time room air was reintroduced to dessicator B. Survivors were monitored for signs of lethargy or vitality.
Effect of drug treatment was assessed as the percent of the survival time of the drug treated group with respect to the saline injected or vehicle injected control group. Control groups were run twice, before and after each experimental group and consisted of 12-16 mice in groups of 4 mice. Each experimental group always consisted of 4 mice to ensure a constant residual volume of oxygen in all tests. The effect of each dose of test drug was determined in duplicate i.e. two groups of 4 mice.
All drugs were administered intra-peritoneally at the dose indicated one hour prior to exposure to hypoxia.

[11] = 0.005 µM + NMDA 1mM for 3 hours
[12] = 0.010 µM + NMDA 1mM for 3 hours
[13] = 0.100 µM + NMDA 1mM for 3 hours
[14] = 1.000 µM + NMDA 1mM for 3 hours

| SMILES | ED50 (mice [2]) | TD50 (in vivo) | RATS TD50 (rats [3]) | SURVIVING CELL IN CULTURE [5, 11] | PERCENT PROTECTION ([5]; 0.005 µM + NMDA) | EFFECTIVE PROTECTION ([5]; 0.005 µM + NMDA) | SURVIVING CELL IN CULTURE [5, 12] | PERCENT PROTECTION ([5]; 0.010 µM + NMDA) | EFFECTIVE PROTECTION ([5]; 0.010 µM + NMDA) | SURVIVING CELL IN CULTURE [5, 13] | PERCENT PROTECTION ([5]; 0.100 µM + NMDA) | EFFECTIVE PROTECTION ([5]; 0.100 µM + NMDA) | PERCENT PROTECTION (Male mongolian gerbils; 0.1 mg/kg ip) | PERCENT PROTECTION (Male mongolian gerbils; 1.0 mg/kg ip) | PERCENT PROTECTION (Male mongolian gerbils; 10.0 mg/kg ip) | ED50 (rats [7]) | ED50 (mice [8]) | ED50 (rats [1]) | TD50 ([4]; MICE TD50) | MICE TD50 (mice [9]) | further results |
| --- | --- | --- | --- | --- | --- | --- | --- | --- | --- | --- | --- | --- | --- | --- | --- | --- | --- | --- | --- | --- | --- |
| NC(=O)CN[C@H]1CCc2ccccc21 [Example 2, (S)-N-(2-Acetamido)-1-aminoindan.HCl] | 39 mg/kg | > 500 mg/kg | >500 mg/kg | 56% | 26% | 37% | 51% | 21% | 30% | 33% | 3% | 4% | 0% | 50.0% | 37.5% | > 250 mg/kg | > 150 mg/kg | – | – | – | RATS MES 50 (rats [1]): 21 mg/kg; TD50 ([4]; MICE TD50, mice, Table 15): 137 mg/kg; TD50 ([4]; MICE TD50, mice, Table 16): 137 mg/kg; % ENHANCED SURVIVAL ([6]; 0.005 µM): 140%; % ENHANCED SURVIVAL ([6]; 0.01 µM): 125% |
| CC(=O)N[C@H]1CCc2ccccc21 [Example 19, (S)-N-Acetyl-1-aminoindan] | 40 mg/kg | > 500 mg/kg | >500 mg/kg | 30% | 0% | 0% | 42% | 12% | 17% | – | – | – | 25.0% | 0% | 37.5% | > 250 mg/kg | 86 mg/kg | 24 mg/kg | 61 mg/kg | 61 mg/kg | SURVIVING CELL IN CULTURE ([5]; 0.001 µM + NMDA 1mM for 3 hours): 80%; PERCENT PROTECTION ([5]; 0.001 µM + NMDA): 50%; EFFECTIVE PROTECTION ([5]; 0.001 µM + NMDA): 71%; SURVIVING CELL IN CULTURE [5, 14]: 15%; PERCENT PROTECTION ([5]; 1.000 µM + NMDA): -15%; % ENHANCED SURVIVAL ([6]; 0.005 µM): 120%; ED50 (rats [10]): > 50 mg/kg |
| COc1ccc2c(c1OC)CC[C@H]2NC(C)=O [Example 21, (R)-4,5-Dimethoxy-N-acetyl-1-aminoindan] | 40 mg/kg | > 500 mg/kg | >500 mg/kg | – | – | – | – | – | – | – | – | – | – | – | – | > 250 mg/kg | 150 mg/kg | 21 mg/kg | 137 mg/kg | 137 mg/kg | – |
| N[C@@H]1CCc2ccc(F)cc21 [J, (R)-6-fluoro-1-aminoindan] | 65 mg/kg | > 50 mg/kg | >50 mg/kg | 108% | 78% | 111% | 79% | 49% | 70% | 62% | 32% | 46% | 27.5% | 25.0% | 25.0% | > 100 mg/kg | – | < 50 mg/kg | 78 mg/kg | 78 mg/kg | PROTECTION % OF RESPECTIVE CONTROL (male ICR albino mice; 50 mg/kg ip one hour prior to hypoxia): 305±185 % OF RESPECTIVE CONTROL; PROTECTION % OF RESPECTIVE CONTROL (male ICR albino mice; 100 mg/kg ip one hour prior to hypoxia): 241±56 % OF RESPECTIVE CONTROL; SURVIVING CELL IN CULTURE [5, 14]: 53%; PERCENT PROTECTION ([5]; 1.000 µM + NMDA): 23%; EFFECTIVE PROTECTION ([5]; 1.000 µM + NMDA): 33%; SURVIVING CELL IN CULTURE ([5]; 5.000 µM + NMDA 1mM for 3 hours): 60%; PERCENT PROTECTION ([5]; 5.000 µM + NMDA): 30%; EFFECTIVE PROTECTION ([5]; 5.000 µM + NMDA): 43% |
